For the experiment, the system named is VEGF. Description: Immunohistochemical staining of VEGF in SEC tumor sections. In kind it is in vivo, mice. Particulars: IHC of SEC tumor. The source says: VEGF has been considered a biomarker for VEGFR-2 bioactivity, as it binds to and activates this kinase receptor, playing a crucial role in angiogenesis. High VEGF levels are often associated with increased VEGFR-2 expression and activity, making VEGF a marker for VEGFR-2's function and tumor growth. […] The staining intensity is strong (+ 3), with dark brown cytoplasmic staining in most tumor cells. The immunoreactive score (IRS), calculated by multiplying the staining intensity score and the percentage of positive cells, is 9–12, indicating a high level of VEGF expression. This intense VEGF expression correlates with the presence of numerous irregular and dilated blood vessels in the tumor microenvironment.
The paraffin-infiltrated tissue was sliced into thin sections (4-6 μm) using a microtome and floated in a water bath. The sections were then mounted onto charged slides and left to dry overnight. The use of charged slides ensures the sections adhere properly to the slide. To carry out antibody staining, the paraffin wax was removed from the sample, and the tissue was rehydrated. The paraffin was eliminated by placing the tissue sections in three containers of xylene for 5 minutes each. Rehydration began by immersing the sections in two containers of 100% ethanol for 10 minutes each, followed by two containers of 95% ethanol for 10 minutes each. Finally, to complete the rehydration, the sections were washed twice in deionized water for 5 minutes each.
For antigen retrieval, the slides are heated in 10 mM Tris/1 mM EDTA, pH 9.0, kept at a sub-boiling temperature for 18 minutes, and then allowed to cool at room temperature for 30 minutes. For chromogenic staining detection, the sections are rinsed in deionized water three times for 5 minutes each, and then the endogenous peroxidase activity in the tissue sections is quenched to prevent high background staining by incubating the sections in 3% hydrogen peroxide for 10 minutes. Afterward, the sections are washed twice in deionized water for 5 minutes each, followed by a single wash in wash buffer for 5 minutes. A hydrophobic pen is used to carefully draw a large circle around the sample, ensuring it doesn’t touch the sample, creating a hydrophobic boundary to achieve optimal antibody staining quality. To prevent non-specific antibodies from binding to the tissue, each section is blocked with 100–400 µl of blocking solution for 1 hour at room temperature in a humidified chamber. The blocking solution was discarded, and 100–400 µl of diluted primary antibody was applied. […]
The slides were incubated overnight at 4°C in a humidified chamber. […] Then, 100–400 µl of Signal Stain DAB was applied to each section and monitored closely for 1–10 minutes until an acceptable staining intensity was achieved. […]

The text below walks through data of publication PMC12699035, “Exploring market-approved azoles as potential breast cancer therapeutics targeting the VEGFR-2 biotarget” (Scientific Reports, 2025).

Structures are written as SMILES.

Consider `CCC(C)n1ncn(-c2ccc(N3CCN(c4ccc(OCC5COC(Cn6cncn6)(c6ccc(Cl)cc6Cl)O5)cc4)CC3)cc2)c1=O` (centres unmarked) [Itraconazole, itraconazole], for which the “immunoreactive score (IRS)” value (scale 0-12, SEC control 9–12) is reported as 4–8. The “percentage of VEGF-positive tumor cells” value (SEC control 80–90%) was 40–60%.
